Data from patent US20110312890A1, “ACETYLATED AMINO ACIDS AS ANTI-PLATELET AGENTS, NUTRITIONAL AND VITAMIN SUPPLEMENTS” (SIGNATURE R&D HOLDINGS, LLC, priority 2005, published 2011).
“And” between values parts separate entries of the source, which are not always exact repeats. Equal values may be shown once. One block for each compound: values may come before it. Non-standard residues stand in square brackets, D forms with d. Residues, ends and D or L forms follow the SMILES beside them. ξ: configuration not given here. ξY = NC(Cc1ccc(O)cc1)C(=O)O; ξS = NC(CO)C(=O)O

Assays:
[1] = Hygroscopicity and handling stability of salts and zwitterions; type: physicochemical
Protocol: Salts of compound O-Acetyl-(L)-Serine-O—(O-Acetyl)-L-Serine with various acids, including HCl, MeSO3H and tartaric acid, were prepared. […] The salt with tartaric acid was unstable and produced the zwitterion son attempted recrystallization from water/acetonitrile. The zwitterions of all three compounds were the most convenient forms (non-hygroscopic) for preparation. If needed, salts are prepared in situ during the formulation process.
(§1) A sample of the compound of Ex 3 was tested in D2O with 1 drop of DCl added for a better solubility of the material. […] Stability of the compound of Ex 3 in an aqueous solution as a salt of tartaric acid is much greater. A 400-mg sample of the salt was attempted to recrystallize from 6 ml of boiling acetonitrile and 20 drops of water. The material crystallized as a zwitterion (not a tartrate) with minor traces of the decomposition. However, the recovery was 132 mg only.
(§2) c. The material of Ex 3 as a zwitterion was recrystallized from aqueous 40% EtOH while heating at 70 C for approximately 20 minutes. […] In a solution of 8% acetonitrile/92% aqueous 0.05 mol buffer of KH2PO4 (pH 5). […] Temperature of the analyses greatly affected the outcome of the analyses.

[2] = Stability in solution or solid state followed by NMR; type: physicochemical
Protocol: (§3) In addition, HPLC analysis of the products indicated faster degradation when determinations were made at higher temperatures (40 or 25° C. compared to 10 or 15° C.). The purity of the compounds of Ex 4 varied by as much as 20% when the analysis was performed at 25 and 10° C., respectively.
as §1
(§4) f. Instability of the compound of Ex 4 in an aqueous solution as a zwitterion was observed when a recovery of an additional amount of the material from a large freeze-drying flask was attempted. Simple dissolution of a residual material on the walls with DI water followed by freeze-drying has decrease estimated by NMR purity from 95-96% to 87-88%. • g. […] The same sample analyzed at 25 C and 10 C had difference in purity 13-15%, e.g., either 78-80% or 93%.
(§5) Instability of the compound of Ex 5 in an aqueous solution as a zwitterion was observed while doing a purification of an additional amount of the material on C8 silica gel with water/acetonitrile as eluent. • j. The material of the compound of Ex 5 was decomposing faster during HPLC analysis when temperature of the thermostat was higher. The same sample analyzed at 40 C and 15 C had purity 97% or 99%, correspondingly. • k.

[3] = Stability followed by HPLC purity (time in solution, temperature of analysis); type: physicochemical; conditions: for HPLC purity, same sample analyzed at 10 C: temperature of analysis 10 C (Ex 3: pH 4.5); for HPLC purity, same sample analyzed at 40 C: temperature of analysis 40 C
Protocol: as §3, §2, §4, §5

platelet aggregation [4] = assay: Whole blood clotting time by capillary tube method in human volunteers; type: in vivo; conditions: for Max % Increase in clotting time: versus time zero
Protocol: A Test Method was developed to determine clotting time to evaluate the anti, platelet aggregation effect of O-acetyl-L-Tyrosine (OAT) by employing capillary tube method in two human volunteers.
1. Dose Strength: Volunteer 1 (90 Kg) 1000 mg, Volunteer 2 (60 Kg) 350 mg of OAT
3. Route of Administration: Single exposure by […]. 4. Blank Control Self, time zero clotting time
600 mg of O-Acetyl-L-Serine-O-Acetyl-L-Tyrouine was administered to a single human volunteer who weighs 136 lbs and is […]. The procedure was conducted using the protocol of Example 2, except the drug administered was O-Acetyl-L-Serine-O-Acetyl-L-Tyrosine. The results are depicted in FIG. 3.

platelet aggregation [5] = assay: Clotting time by capillary tube method in Swiss Albino rats (anti platelet aggregation effect); type: in vivo; conditions: for Clotting time: OAS study, 2 hours post dosing, HCl salt; for Clotting time / Clotting time in minutes, After 4 hrs of administration / Clotting time in minutes, After 24 hrs of administration: single oral gavage; for Significance of clotting times at all dose levels and between the dose levels (FIG. 1): rats, 10-100 mg/kg, average of 5 rats, P<0.5 [sic]; for Clotting time in minutes, After 4 hrs of administration / Clotting time in minutes, After 24 hrs of administration: OAT study
Protocol: A Test Method was developed to determine clotting time to evaluate the anti platelet aggregation effect of O-acetyl-L-Serine HCl salt (OAS), and O-acetyl-L-Tyrosine (OAT) by employing a capillary tube method using Swiss Albino Rats as the test system.
Young 5-6 weeks old Swiss Albino rats weighing about 200 Gm were used in the following protocol. They were obtained from an established animal supplier.
1. Dose Strength: 10, 20, 50 and 100 mg/kg of OAS and OAT
3. Route of Administration: Single exposure by oral gavage. 4. No. of animals per group: 5
Experimental procedure: The rats were fasted for 18-20 hours before dosing. A Syringe attached to a 16 gauge blunt tipped canula was used for this purpose. Two hours after dosing, the animals were provided with feed. 24 hours (±10 minutes) after the administration of the drug, blood samples were collected (0.2 ml approx) in capillary tubes. Animals were anaesthetized by mild ether inhalation by keeping a cotton swab soaked in ether near the nostrils of the animal. Blood was collected from the orbital sinus onto the capillary tube. […] For the confirmation of clotting, clotting as checked 30 seconds after the last observed clotting. An increase in clotting time compared to vehicle is an index of inhibition of platelet aggregation.
[…] With OAS, only one clotting time measurement, at 2 hours post dosing, was performed.
In FIG. 1, the clotting time in minutes was plotted against Log of the dose in mg/kg, each point being an average of clotting time obtained in 5 rats. A value of zero was assigned to vehicle control (zero dose). […] (AceTyro=O-Acetyl-L-Tyrosine and AceSer=O-Acetyl-L-Serine HCl).

[6] = 8% acetonitrile/92% aqueous 0.05 mol buffer of KH2PO4 (pH 5)
[7] = single human volunteer, 136 lbs, 600 mg
[8] = Group-2, individual rats, likely 10 mg/kg
[9] = Group-3, individual rats, likely 20 mg/kg
[10] = Group-4, individual rats, likely 50 mg/kg
[11] = Group-5, individual rats, likely 100 mg/kg

- Stability in solutions during isolation, purification and analyses (qualitative) [2]: greatest instability in the whole series
- Purity estimated by NMR before re-dissolution ([2]; zwitterion): 95-96%
- Purity estimated by NMR after dissolution with DI water followed by freeze-drying ([2]; zwitterion, aqueous solution): 87-88%
- Variation of purity between HPLC analysis at 25 and 10° C. [3]: ≤ 20%
- Difference in HPLC purity between analysis at 25 C and 10 C ([3]; same sample): 13-15%
- HPLC purity, same sample analyzed at 10 C [3]: 93%
- HPLC purity, same sample analyzed at 25 C ([3]; temperature of analysis 25 C): 78-80%
Compound: CC(=O)OC[C@H](N)C(=O)N[C@H](C(=O)O)[C@@H](C)OC(C)=O [Ex 4, O-acetyl-(L)-serine-O-acetyl-(L)-threonine] (H-Ser(Ac)-Thr(Ac)-OH)

- O, N-shift by-product formed after 26 hours ([2]; D2O solution (NMR sample)): about 3.4%
- O, N-shift impurity after 5 days ([2]; same NMR sample in D2O): 4.7%
- HPLC purity, same sample analyzed at 15 C ([3]; temperature of analysis 15 C): 99%
- HPLC purity, same sample analyzed at 40 C [3]: 97%
Compound: CC(=O)OC[C@H](N)C(=O)NC(Cc1ccc(OC(C)=O)cc1)C(=O)O (stereo partly shown) [Ex 5, O-acetyl-(L)-serine-O-acetyl-(L)-tyrosine] (H-Ser(Ac)-[ξY](Ac)-OH)
- Stability in solutions during isolation, purification and analyses (qualitative) [2]: comparable stability of relative to Compound F
- Decomposition in a solid state after 5 days of storage at 25 C ([2]; batch B, freshly dissolved material, NMR): a trace of the signal at 3.7 ppm (CH2OH group) was observed
- Anti platelet activity (blood clotting time, FIG. 3) (platelet aggregation [4]; [7]): significant anti platelet activity
- Period of significant anti platelet activity (platelet aggregation [4]; [7]): 200 h

The next lines start with the compound.

Compound: CC(=O)OC[C@H](NC(=O)[C@@H](N)COC(C)=O)C(=O)O [Ex 3, O-acetyl-(L)-serine-O-acetyl-(L)-serine] (H-Ser(Ac)-Ser(Ac)-OH)
- Hygroscopicity of salts ([1]; salts with HCl, MeSO3H and tartaric acid): hygroscopic
- Stability of the salt with tartaric acid on attempted recrystallization ([1]; water/acetonitrile, produced the zwitterion): unstable

Compound: CC(=O)OCC(NC(=O)[C@@H](N)COC(C)=O)C(=O)O (stereo partly shown) [Ex 3, O-acetyl-(L)-serine-O-acetyl-(L)-serine] (H-Ser(Ac)-[ξS](Ac)-OH)
- Stability in an aqueous solution as a salt of tartaric acid ([1]; compared with D2O/DCl sample): much greater
- By-product on recrystallization from aqueous 40% EtOH ([1]; zwitterion, heating at 70 C for approximately 20 minutes, mother liquor): Significant accumulation of the O, N-acetyl shift's by-product
- Stability in solutions during isolation, purification and analyses (qualitative) [2]: Certain instability
- NMR purity of the fresh prepared sample ([2]; D2O with 1 drop of DCl): about 95%
- NMR sample after 4 days at room temperature ([2]; D2O with 1 drop of DCl, three sets of signals found): severe decomposition
- HPLC purity after 5 days after dissolution [3, 6]: 95.7%
- HPLC purity in solution before storage [3, 6]: 97.3%
- HPLC purity, same sample analyzed at 10 C [3]: 99.4%
- HPLC purity, same sample analyzed at 40 C [3]: 97.3%

Compound: CC(=O)OC[C@H](N)C(=O)O.Cl [OAS, O-acetyl-L-Serine HCl salt]
- Clotting time (platelet aggregation [5]; [8]): 6 minutes (2×) and 8 minutes and 9 minutes (2×)
- Clotting time (platelet aggregation [5]; [9]): 9 minutes (3×) and 8 minutes (2×)
- Clotting time (platelet aggregation [5]; [10]): 19 min and 20 min and 16 min and 17 min and 15 min
- Clotting time (platelet aggregation [5]; [11]): 26 minutes (2×) and 22 minutes and 30 minutes and 29 minutes
- Significance of clotting times at all dose levels and between the dose levels (FIG. 1) (platelet aggregation [5]): statistically significant

Compound: CC(=O)Oc1ccc(C[C@H](N)C(=O)O)cc1 [OAT, O-acetyl-L-Tyrosine]
- Clotting time in minutes, After 4 hrs of administration (platelet aggregation [5]; Group-2, individual rats, group dose not given (doses 10, 20, 50, 100 mg/kg)): 8 minutes (2×) and 9 minutes (2×) and 10 minutes
- Clotting time in minutes, After 24 hrs of administration (platelet aggregation [5]; [8]): 8 minutes (2×) and 9 minutes (2×) and 7 minutes
- Clotting time in minutes, After 4 hrs of administration (platelet aggregation [5]; [9]): 9 minutes (2×) and 10 minutes (2×) and 15 minutes
- Clotting time in minutes, After 24 hrs of administration (platelet aggregation [5]; [9]): 9 minutes and 10 minutes (2×) and 8 minutes and 11 minutes
- Clotting time in minutes, After 4 hrs of administration (platelet aggregation [5]; [10]): 18 minutes and 19 minutes (2×) and 17 minutes (2×)
- Clotting time in minutes, After 24 hrs of administration (platelet aggregation [5]; [10]): 14 minutes (3×) and 16 minutes (2×)
- Clotting time in minutes, After 4 hrs of administration (platelet aggregation [5]; [11]): 21 minutes (2×) and 26 minutes and 29 minutes and 25 minutes
- Clotting time in minutes, After 24 hrs of administration (platelet aggregation [5]; [11]): 19 min and 23 min and 22 min and 25 min and 24 min
- Significance of clotting times at all dose levels and between the dose levels (FIG. 1) (platelet aggregation [5]): statistically significant
- Whole blood clotting time (platelet aggregation [4]; Vol 1 (90 Kg), 1000 mg once, Time 8): 6.5 min
- Whole blood clotting time (platelet aggregation [4]; Vol 1 (90 Kg), 1000 mg once, Time 12): 8.5 min
- Whole blood clotting time (platelet aggregation [4]; Vol 1 (90 Kg), 1000 mg once, Time 24): 8 min
- Whole blood clotting time (platelet aggregation [4]; Vol 1 (90 Kg), 1000 mg once, Time 48): 7.5 min
- Sustained Increase % in clotting time (platelet aggregation [4]; Vol 1, 1000 mg, at 48 hours after initial dose, listed as O-Acetyl Tyrosine): 25%
- Max % Increase in clotting time (platelet aggregation [4]; Vol 1, 1000 mg): 42%
- Whole blood clotting time (platelet aggregation [4]; Vol 2 (60 Kg), 350 mg once, Time 2): 5.5 min
- Whole blood clotting time (platelet aggregation [4]; Vol 2 (60 Kg), 350 mg once, Time 5): 6 min
- Whole blood clotting time (platelet aggregation [4]; Vol 2 (60 Kg), 350 mg once, Time 11): 6.75 min
- Whole blood clotting time (platelet aggregation [4]; Vol 2 (60 Kg), 350 mg once, Time 22.5): 6.5 min
- Sustained Increase % in clotting time (platelet aggregation [4]; Vol 2, 350 mg, last time point): 18%
- Max % Increase in clotting time (platelet aggregation [4]; Vol 2, 350 mg, listed as O-Acetyl Tyrosine): 23%
- Time for which increase in clotting time was sustained (platelet aggregation [4]; Volunteer 1, 1000 mg): at least 48 hours
- Dose dependence of increase in clotting time (platelet aggregation [4]; two human volunteers, 1000 mg and 350 mg): dose dependent increase in clotting time
- Side effects or toxic reactions reported by volunteers (platelet aggregation [4]; two human volunteers, single dose 1000 mg or 350 mg): Neither volunteer reported any unusual side effects or toxic reactions
